Earlier results as cited in patent publication US20210022994A1, “SUSTAINED RELEASE TREPOSTINIL-COMPOUND MICROPARTICLE COMPOSITIONS” (Lupin Holdings, B.V., priority 2019, published 2021).

Conditions: in human plasma

half-life: 2 to 4 h
Structure (SMILES): CCCCC[C@H](O)CC[C@@H]1[C@H]2Cc3cccc(OCC(=O)O)c3C[C@H]2C[C@H]1O [treprostinil, (1R,2R,3aS,9aS)-[[2,3,3a,4,9,9a-hexahydro-2-hydroxy-1-[(3S)-3-hydroxyoctyl]-1Hbenz[f]inden-5-yl]oxy]acetic acid]
